The assay deals with T1, vanilloid receptor (Rattus norvegicus, UniProt O35433).
T1 construct: DRG nerve cells from the primary culture of 2 days were equilibrated by washing 4 times; endogenous in cells; host or cells: primary culture of dorsal root ganglion neurons from neonatal SD rats
The assay can be described thus: 45Ca influx test (calcium uptake) in primary cultured DRG neurons, capsaicin 0.5 μM. The assay is classed as cell-based. The following applies: rat DRG neurons, capsaicin 0.5 μM, 45Ca; read-out: Antagonist Calcium Uptake Test (IC50). As for the experimental part:
1) Separation of Spinal Dorsal Root Ganglia (DRG) in Newborn Rats and Primary Culture Thereof
Neonatal (2-3 day old or younger than 2-3 day old) SD rats were put in ice for 5 minutes to anesthetize and disinfected with 70% ethanol. […] The DRG were incubated sequentially at 37° C. for 30 mins in 200 U/ml collagenase and 2.5 mg/ml trypsin, separately. The ganglia were washed twice with DME/F12 medium supplemented with 10% horse serum, triturated through a fire-polished Pasteur pipette, filtered through Nitex 80 membrane to obtain single cell suspension and the suspension was washed once more. This was subjected to centrifugation, then resuspended in cell culture medium at certain level of cell density. As the cell culture medium, DME/F12 medium supplemented with 10% horse serum was diluted with identical medium conditioned by C6 glioma cells 2 days on a confluent monolayer (1:1), and NGF (Nerve Growth Factor) was added to adjust 200 ng/ml as final concentration. After the cells were grown 2 days in medium where cytosine arabinoside (Ara-C, 100 μM) was added to kill dividing nonneuronal cells, medium was changed to one without Ara-C. The resuspended cells were plated at a density of 1500-2000 neurons/well onto Terasaki plates previously coated with 10 μg/ml poly-D-ornithine.
2) ^45Ca Influx Experiments
DRG nerve cells from the primary culture of 2 days were equilibrated by washing 4 times with HEPES (10 mM, pH 7.4)-buffered Ca^2+, Mg^2+-free HBSS (H-HBSS). The solution in each well was removed from the individual well. Medium containing the test compound plus capsaicin (final concentration 0.5 μM) and ^45Ca (final concentration 10 μCi/ml) in H-HBSS was added to each well and incubated at room temperature for 10 mins. Terasaki plates were washed five times with H-HBSS and dried at room temperature. To each well, 0.3% SDS (10 μl) was added to elute ^45Ca. After the addition of scintillation cocktail of into each well, the amount of ^45Ca influx into neuron was measured by counting radioactivity.

T1 sequence (O35433 whole entry): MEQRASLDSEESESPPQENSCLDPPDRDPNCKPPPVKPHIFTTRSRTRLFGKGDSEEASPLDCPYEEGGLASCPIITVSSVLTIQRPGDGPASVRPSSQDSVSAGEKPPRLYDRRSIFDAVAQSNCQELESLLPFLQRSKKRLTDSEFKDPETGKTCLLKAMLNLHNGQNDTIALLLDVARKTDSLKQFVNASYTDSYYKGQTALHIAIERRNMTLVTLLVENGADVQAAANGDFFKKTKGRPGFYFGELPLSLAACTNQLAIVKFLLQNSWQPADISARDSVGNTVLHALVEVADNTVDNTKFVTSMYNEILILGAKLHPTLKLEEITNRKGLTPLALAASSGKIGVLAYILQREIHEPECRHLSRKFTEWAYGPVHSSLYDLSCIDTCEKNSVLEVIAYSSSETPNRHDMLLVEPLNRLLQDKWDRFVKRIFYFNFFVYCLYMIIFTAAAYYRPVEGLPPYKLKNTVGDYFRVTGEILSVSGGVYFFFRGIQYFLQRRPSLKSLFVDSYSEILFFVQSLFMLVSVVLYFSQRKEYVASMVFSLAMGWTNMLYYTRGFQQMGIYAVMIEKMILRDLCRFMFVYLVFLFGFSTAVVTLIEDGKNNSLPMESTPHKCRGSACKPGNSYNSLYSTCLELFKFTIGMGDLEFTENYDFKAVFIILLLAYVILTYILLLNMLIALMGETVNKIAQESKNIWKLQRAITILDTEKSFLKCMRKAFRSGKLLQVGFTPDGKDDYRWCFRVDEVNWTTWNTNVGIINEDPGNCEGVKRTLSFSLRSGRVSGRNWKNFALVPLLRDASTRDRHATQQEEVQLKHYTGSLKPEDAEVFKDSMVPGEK

For orientation: IC50 means the concentration needed to halve the response being measured. For `C#Cc1cc(CNC(=O)/C=C/c2ccc(C(F)(F)F)cc2OCCC)cc(F)c1NS(C)(=O)=O` [Example 14, N-(3-Ethynyl-5-fluoro-4-methanesulfonylamino-benzyl)-3-(2-propoxy-4-trifluoromethyl-phenyl)-acrylamide], the IC50 was determined as 0.24 µM.
For `CCCCNc1cc(F)ccc1/C=C/C(=O)NCc1cc(F)c(NS(C)(=O)=O)c(F)c1` [Example 46, 3-(2-Butylamino-4-fluoro-phenyl)-N-(3,5-difluoro-4-methanesulfonylamino-benzyl)-acrylamide], the IC50 turned out to be 0.18 µM.
Regarding `CCC(C)Oc1cc(F)ccc1/C=C/C(=O)NCc1cc(F)c(NS(C)(=O)=O)c(F)c1` (stereo not drawn) [Example 41, 3-(2-sec-Butoxy-4-fluoro-phenyl)-N-(3,5-difluoro-4-methanesulfonylamino-benzyl)-acrylamide], the IC50 was found to be 0.55 µM.
With `CCCCNc1cc(F)ccc1/C=C/C(=O)N[C@H](C)c1cc(F)c(NS(C)(=O)=O)c(F)c1` [Example 45, (R)-3-(2-Butylamino-4-fluoro-phenyl)-N-[1-(3,5-difluoro-4-methanesulfonylamino-phenyl)-ethyl]-acrylamide], the IC50 came to 0.065 µM.
Regarding `CCCCOc1cc(C(F)(F)F)ccc1/C=C/C(=O)N[C@H](C)c1cc(F)c(NS(C)(=O)=O)c(F)c1` [Example 31, (R)-3-(2-Butoxy-4-trifluoromethyl-phenyl)-N-[1-(3,5-difluoro-4-methanesulfonylamino-phenyl)-ethyl]-acrylamide], the IC50 is 0.11 µM.
`CCCc1cc(C(F)(F)F)ccc1/C=C/C(=O)N[C@H](C)c1ccc(NS(C)(=O)=O)c(F)c1` [Example 44]: the IC50 came out at 0.091 µM.
Consider `CCCCNc1cc(C(F)(F)F)ccc1/C=C/C(=O)N[C@H](C)c1cc(F)c(NS(C)(=O)=O)c(F)c1` [Example 3, (R)-3-(2-Butylamino-4-trifluoromethyl-phenyl)-N-[1-(3,5-difluoro-4-methanesulfonylamino-phenyl)-ethyl]-acrylamide], for which the IC50 worked out at 0.12 µM.
Regarding `C[C@@H](NC(=O)/C=C/c1ccc(C(F)(F)F)cc1N1CCCCC1)c1cc(F)c(NS(C)(=O)=O)c(F)c1` [Example 52], the concentration for half-maximal inhibition (IC50) came to 0.34 µM.
For the molecule `CCCc1cc(C(F)(F)F)cc(CCC)c1/C=C/C(=O)N[C@H](C)c1cc(F)c(NS(C)(=O)=O)c(F)c1` [Example 6, (R)—N-[1-(3,5-Difluoro-4-methanesulfonylamino-phenyl)-ethyl]-3-(2,6-dipropyl-4-trifluoromethyl-phenyl)-acrylamide], the IC50 came out at 0.026 µM.
As to `CCNc1cc(C(F)(F)F)ccc1/C=C/C(=O)NCc1cc(F)c(NS(C)(=O)=O)c(F)c1` [Example 18, N-(3,5-Difluoro-4-methanesulfonylamino-benzyl)-3-(2-ethylamino-4-trifluoromethyl-phenyl)-acrylamide], the concentration for half-maximal inhibition (IC50) is 0.083 µM.
As for `CCCOc1cc(F)ccc1/C=C/C(=O)NCc1cc(F)c(NS(C)(=O)=O)c(F)c1` [Example 28, N-(3,5-Difluoro-4-methanesulfonylamino-benzyl)-3-(4-fluoro-2-propoxy-phenyl)-acrylamide], the half-inhibitory concentration (IC50) was 1.1 µM.
Consider `CCCc1cc(C(F)(F)F)ccc1/C=C/C(=O)NCc1cc(C)c(NS(C)(=O)=O)c(F)c1` [Example 23, N-(3-Fluoro-4-methanesulfonylamino-5-methyl-benzyl)-3-(2-propyl-4-trifluoromethyl-phenyl)-acrylamide], for which the IC50 was determined as 0.27 µM.
Regarding `CCCCOc1cc(F)ccc1/C=C/C(=O)N[C@H](C)c1cc(F)c(NS(C)(=O)=O)c(F)c1` [Example 33, (R)-3-(2-Butoxy-4-fluoro-phenyl)-N-[1-(3,5-difluoro-4-methanesulfonylamino-phenyl)-ethyl]-acrylamide], the IC50 turned out to be 0.15 µM.
On to `CS(=O)(=O)Nc1c(F)cc(CNC(=O)/C=C/c2ccc(C(F)(F)F)cc2N2CCCCC2)cc1F` [Example 51, N-(3,5-Difluoro-4-methanesulfonylamino-benzyl)-3-(2-piperidin-1-yl-4-trifluoromethyl-phenyl)-acrylamide], for which the half-maximal inhibitory concentration (IC50) came out at 3.3 µM.
With `CCCNc1cc(F)ccc1/C=C/C(=O)NCc1cc(F)c(NS(C)(=O)=O)c(F)c1` [Example 30], the half-inhibitory concentration (IC50) worked out at 0.41 µM.
